Test results published in patent US12377110B2, “Fospropofol methods and compositions” (Epalex Corporation, priority 2019, dated 2025).
Where “and” joins values, the source holds several entries; their conditions need not be identical. Equal entries are not always repeated. Structures can show the parent of a compound that is named as a salt. Where two headings read alike, the source gives them in different places.

Key:
[1] = assay type: physicochemical; details: for XRPD Analysis Post Dissolution: after IDR at pH 4.5; for Average pH: during IDR run, 36 ml water and 4 ml GI media; for Average pH / IDR Average / IDR Duplicate: pH set to 4.5, 37° C.; for IDR Average / IDR Duplicate: 3 mm disc, 100 rpm; for IDR Average: average of duplicate; for IDR Duplicate: individual duplicate values
Experimental: Intrinsic Dissolution Rate was measure in GI tract buff (pH—4.5 buffer): 2.99 g sodium acetate trihydrate was dissolved in 14.0 ml 2N acetic acid in a 1000 ml volumetric flask, and then made to volume with deionised water.
(§1) Data were collected on a Sirius inform instrument fitted with a dual UV DipProbe attachment and Ag/AgCI combination pH electrode. The electrode was calibrated using the four plus parameters derived from a blank titration. The base titrant was standardised by titration with TRIS. 0.5 M HCl and NaOHaqueous solutions were used as the acid and base titrants respectively for the testing. Stirring was facilitated by a dual overhead stirrer to allow thorough mixing within the vessel, and media was introduced via a capillary bundle attached to a dispensing bank comprised of six precision dispensing units. A Peltier heating jacket was used to maintain the temperature of the titration vessel. Discs were introduced to the vessel via the tablet picker housed in the probe arm, after the desired temperature of the media had been reached. Sirius inform Assay Design, Control and Refine software were used to design, run and refine data respectively.
(§2) One MEC data sets were then collected using five additions each of the water stock using 250, 500 and three times 750 μI aliquots, respectively. UV Spectra were then collected after each addition of the water stock to build a multi-point MEC calibration, using a 20 mm path length probe. The MEC data set was then imported into the dissolution data files in order to convert the UV absorbance measured to concentration. […] MEC data were collected at 37° C. to match the dissolution experiments.
(§3) Intrinsic Dissolution Rate (IDR): Approximately. 10-20 mg of the sample was compressed in a 3 mm disc recess, under 100 kg for 2 minutes, with greaseproof paper on the compression base, to form nondisintegrating discs. The discs were then plugged with a bung so that only one surface was exposed to the media during analysis and transferred to the Sirius inform dissolution apparatus. Analysis was performed at 37° C. in 36 ml water and 4 ml GI media with the pH set to 4.5, for 1 hour with UV spectra collected every 10 seconds. A stir speed of 100 rpm was used with a 20 mm path length probe. The IDR was calculated based on the surface area of the 3 mm disc recess used (7.07 mm2 surface area). XRPD analysis was performed on all samples, both after compression of the material into the disc recess, and post dissolution analysis to observe any change in form. All analysis was performed using XRPD 2.
(§4) X-Ray Powder Diffraction (XRPD2): XRPD diffractograms were collected on a Bruker AXS C2 GADDS diffractometer using Cu Ka radiation (40 kV, 40 mA), an automated XYZ stage, a laser video microscope for auto sample positioning and a Vantec-500 2-dimensional area detector. X-ray optics consists of a single Gobel multilayer mirror coupled with a pinhole collimator of 0.3 mm. The beam divergence, i.e. the effective size of the X-ray beam on the sample, was approximately 4 mm. […] The sample was exposed to the X-ray beam for 120 seconds under ambient conditions. The software used for data collection and analysis was GADDS for Win7/XP and Diffrac Plus EVA respectively.

[2] = assay type: physicochemical; details: for XRPD Analysis Post Dissolution: after IDR in faSSGf; for Average pH: during IDR run in 40 ml faSSGf media; for Average pH / IDR Average / IDR Duplicate: 37° C.; for IDR Average / IDR Duplicate: faSSGf media, 3 mm disc, 100 rpm; for IDR Average: average of duplicate; for IDR Duplicate: individual duplicate values
Experimental: Intrinsic Dissolution Rate was Determined in Simulated Intestinal Fluid at pH Base Buffer (FaSSGF):
Sodium chloride (2.0 g) and deionized water added to a 1000 ml volumetric flask, pH adjusted to 1.6 with concentrated hydrochloric […] acid, made up to volume with deionised water.
Phares SIF (simulated intestinal fluid) powder (0.06 g) was added to a 1 L volumetric flask and made to volume with base buffer.
as §1, with “Dip Probe” for “DipProbe”, “NaOH aqueous” for “NaOHaqueous”
as §2, with “were collected in the dissolution media {faSSGf) and at 37°” for “were collected at 37°”
as §3, with “10-20” for “Intrinsic Dissolution Rate (IDR): Approximately. 10-20”, “in 40” for “in 36”, “ml faSSGf” for “ml water and 4 ml GI”, “media” for “media with the pH set to 4.5,”, “every 30” for “every 10”
as §4

[3] = XRPD after 7 days storage at 40° C./75% RH; assay type: physicochemical
Experimental: XRPD was again taken after 7 days storage at 40° C./75% RH. Form II of the diethylamine salt and Form II of the ethanolamine salt were formed by conversion of Form I of the respective salts after 7 days storage at 40° C./75% RH.
Form II of the calcium salt was produced from Form I of the calcium salt after 7 days storage at 40° C./75% RH.

[Ca] [Calcium]
XRPD Analysis Post Dissolution [1]: Amorphous
Average pH [1]: 4.5
IDR Average [1]: 0.44 mg/min/cm^2
IDR Duplicate [1]: 0.51 mg/min/cm^2 and 0.37 mg/min/cm^2
XRPD Analysis Post Dissolution [2]: Amorphous
Average pH [2]: 1.8
IDR Average [2]: 1.2 mg/min/cm^2
IDR Duplicate [2]: 1.15 mg/min/cm^2 and 1.14 mg/min/cm^2

NCCN [Ethylene Diamine]
XRPD Analysis Post Dissolution [1]: Amorphous
Average pH [1]: 4.5
IDR Average [1]: 0.77 mg/min/cm^2
IDR Duplicate [1]: 0.76 mg/min/cm^2 and 0.78 mg/min/cm^2
XRPD Analysis Post Dissolution [2]: Amorphous
Average pH [2]: 1.6
IDR Average [2]: 1.2 mg/min/cm^2
IDR Duplicate [2]: 1.16 mg/min/cm^2 and 1.29 mg/min/cm^2

[Mg] [Magnesium]
XRPD Analysis Post Dissolution [1]: Amorphous
Average pH [1]: 4.5
IDR Average [1]: 0.46 mg/min/cm^2
IDR Duplicate [1]: 0.47 mg/min/cm^2 and 0.44 mg/min/cm^2
XRPD Analysis Post Dissolution [2]: Amorphous
Average pH [2]: 1.8
IDR Average [2]: 1.6 mg/min/cm^2
IDR Duplicate [2]: 1.51 mg/min/cm^2 and 1.67 mg/min/cm^2

CC(C)c1cccc(C(C)C)c1OCOP(=O)(O)O [calcium salt of fospropofol (Form I)]
Solid form (XRPD) after storage, starting from Form I [3]: Form II

Sodium
Average pH [1]: 4.6
IDR Average [1]: 37 mg/min/cm^2
IDR Duplicate [1]: 38.04 mg/min/cm^2 and 35.67 mg/min/cm^2
Average pH [2]: 1.8
IDR Average [2]: 43 mg/min/cm^2
IDR Duplicate [2]: 41.5 mg/min/cm^2 and 44.2 mg/min/cm^2

Zinc
XRPD Analysis Post Dissolution [1]: Amorphous
Average pH [1]: 4.5
IDR Average [1]: 0.18 mg/min/cm^2
IDR Duplicate [1]: 0.19 mg/min/cm^2 and 0.18 mg/min/cm^2
XRPD Analysis Post Dissolution [2]: Amorphous
Average pH [2]: 1.8
IDR Average [2]: 1.3 mg/min/cm^2
IDR Duplicate [2]: 1.22 mg/min/cm^2 and 1.31 mg/min/cm^2
